The text below walks through data of patent publication US20250250251A1, “PIPERIDINYLPYRIDINYLCARBONITRILE DERIVATIVES AS INHIBITORS OF GLUTAMINYL-PEPTIDE CYCLOTRANSFERASE AND GLUTAMINYL-PEPTIDE CYCLOTRANSFERASE LIKE PROTEIN” (Boehringer Ingelheim International GmbH, priority 2024, published 2025).

Read-outs that look alike come from different tables or passages of the source. Bounds are passed on as bounds.

Series [1] concerns SIRPα signalling induced by A549 cells. The experiment in a line: Assay B: SIRPα signalling assay using A549 cells. In kind it is cell-based. To be noted: Homo sapiens, Table 5, prior art compounds, read-out: Inhibition of SIRPα signalling induced by A549 cells: IC50. In short, it runs like this:
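Raji or A549 cells (5000/well) were each incubated with serially diluted compound for 48 h at 37 °C. Jurkat PathHunter SIRPαV1 reporter cells (15000/well) were then added for 5 h. Beta-galactosidase luminescence gave IC50 via a 4-parameter sigmoidal fit.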

For another series, the system named is CACO-2 cells. Put plainly: Assay C: permeability in CACO-2 cells. In kind it is in vitro ADME. To be noted: pairs with and without 4-fluoropiperidyl, CACO2 cells. In short, it runs like this:
(§1)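 Caco-2 monolayers were grown 10–25 days on porous filter inserts. Compound was applied to the apical or basolateral donor side for A-B or B-A transport (3 filters), and the receiver was sampled for up to 2 h. Quantitation was by HPLC-MS/MS or scintillation; efflux ratio = B-A/A-B permeability.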

Series [2] concerns the target T1, isolated QPCTL (Homo sapiens, UniProt Q9NXS2). To be noted: as disclosed in WO 2024/020517; read-out: Inhibitory activity on isolated QPCTL, IC50; cited from earlier work.
Series [3] has as its system SIRPα signalling induced by Raji cells. The experiment in a line: Assay B: SIRPα signalling assay using Raji cells. In kind it is cell-based. To be noted: Homo sapiens, Table 5, prior art compounds, read-out: Inhibition of SIRPα signalling induced by Raji cells: IC50. The procedure, abridged:
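SIRPα signalling induced by Raji cells in a PathHunter reporter line, read as β-galactosidase complementation luminescence. Detection reagent 1 added for 15 min, then reagent 2 for 60 min in the dark, both at room temperature.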

A further series has as its system CYP3A4 mRNA. Put plainly: Assay D: CYP induction screening assay in primary human hepatocytes. In kind it is in vitro ADME. To be noted: Table 10, prior art compounds, 48 h. In short, it runs like this:
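Single-donor cryopreserved human hepatocytes on collagen with Matrigel overlay were exposed to test compound at […] (0.1% DMSO) for 48 h, medium renewed at 24 h. CYP3A4 mRNA quantified by QuantiGene Plex/Luminex, normalised to geometric mean of RPL32, EIF4E2, GUSB and expressed relative to solvent control.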

Another series concerns murine hepatocytes. The experiment in a line: Assay E: stability in murine hepatocytes. To be noted: Table 13, prior art compounds, 1 μM, 5% species serum. Format: in vitro ADME, mouse. In short, it runs like this: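 Cryopreserved mouse hepatocytes, typically 1 Mio cells/mL in medium with 5% species serum, were dosed at 1 μM compound (0.05% DMSO) at 37 °C and sampled over 0–6 h. Parent decline was measured by HPLC-MS/MS and CLint calculated from dose/AUC, then scaled by well-stirred liver model.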

For series [4], the target named is T1, isolated QPCTL. To be noted: as disclosed in WO 2023/205173; read-out: inhibitory activity on isolated QPCTL, IC50; cited from earlier work.
The target in a further series is T2, QPCTL (Homo sapiens, UniProt Q9NXS2).
T2 construct: made in house
T2 sequence (Q9NXS2 whole entry, species assumed): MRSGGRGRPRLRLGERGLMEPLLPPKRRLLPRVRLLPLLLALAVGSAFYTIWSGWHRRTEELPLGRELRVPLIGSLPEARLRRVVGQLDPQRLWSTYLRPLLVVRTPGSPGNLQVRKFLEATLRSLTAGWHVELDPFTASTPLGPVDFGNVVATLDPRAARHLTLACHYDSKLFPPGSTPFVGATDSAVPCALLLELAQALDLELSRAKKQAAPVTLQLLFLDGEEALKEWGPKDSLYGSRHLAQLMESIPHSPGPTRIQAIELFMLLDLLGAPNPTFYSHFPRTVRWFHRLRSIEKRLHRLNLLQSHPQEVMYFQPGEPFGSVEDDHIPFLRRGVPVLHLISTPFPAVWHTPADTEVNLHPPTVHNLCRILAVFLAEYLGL
The experiment in a line: Assay A: biochemical QPCTL activity assay (MALDI-TOF MS, CD47 peptide substrate). To be noted: Table 3, prior art compounds, read-out: Inhibition of QPCTL: IC50. In short, it runs like this: (§2)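 Enzyme and compound pre-incubated 10 min at 24° C in 20 mM Tris pH 7.5 with TCEP, BSA, Tween20, then 40 min with CD47 peptide (10 μM for QPCTL, 20 μM for QPCT). Pyroglutamate product/internal standard ratio by MALDI-TOF MS, normalized to controls; four-parameter logistic fit.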

A further series concerns the target T3, QPCT (Homo sapiens, UniProt Q16769).
T3 construct: purchased Origine (OriGene) TP700028
Put plainly: Assay A: biochemical QPCT activity assay (MALDI-TOF MS, CD47 peptide substrate). To be noted: Table 3, prior art compounds, read-out: Inhibition of QPCT: IC50. The procedure, abridged: as §2

Series [5] is described as follows: Assay C: permeability in CACO-2 cells. In kind it is in vitro ADME. To be noted: human, Caco-2, pH 7.2. The procedure, abridged: as §1

T1 sequence (Q9NXS2 whole entry): as the sequence (Q9NXS2 whole entry, species assumed) above
T3 sequence (Q16769 29-361): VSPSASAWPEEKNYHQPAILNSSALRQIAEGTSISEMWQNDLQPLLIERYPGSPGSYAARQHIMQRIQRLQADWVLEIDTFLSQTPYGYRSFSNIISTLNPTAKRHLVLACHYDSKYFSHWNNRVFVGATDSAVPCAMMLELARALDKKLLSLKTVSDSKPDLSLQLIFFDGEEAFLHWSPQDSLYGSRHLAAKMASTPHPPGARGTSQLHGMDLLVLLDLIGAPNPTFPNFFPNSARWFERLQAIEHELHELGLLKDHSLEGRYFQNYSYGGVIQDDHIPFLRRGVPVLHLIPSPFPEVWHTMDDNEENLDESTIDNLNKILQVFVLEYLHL

As for `Cn1cnnc1C1CCN(c2c(C#N)cccc2-c2ccnnc2)CC1` [Compound 11], the IC50 was 0.07 µM in [1] and below 0.1 µM on isolated QPCTL [2]. In addition, the “CACO2 Perm.” value in the series with CACO-2 cells is reported as 0.3 10^−6 cm/sec.

Consider `Cn1c(N)nnc1C1CCN(c2c(C#N)cccc2-c2ccc(F)nc2)CC1` [Compound 14, reference compound], for which the IC50 in series [3] was 0.004 µM; in [1], 0.004 µM; on isolated QPCTL [4] it was below 1 µM. Further, the “n-fold induction of CYP3A4 at 10 μM” value with CYP3A4 mRNA turned out to be 1.9 n-fold. Also, in the series with murine hepatocytes, the “Mouse Hepatocyte Stability QH” value turned out to be 33%.

As for `Cn1cc2c(-c3cccc(C#N)c3N3CCC(c4nncn4C)CC3)cncc2n1` [Compound 16, reference compound], the IC50 at QPCTL was 0.01 µM; on QPCT it was 0.024 µM; in series [3], 0.778 µM; in [1], 0.396 µM; at isolated QPCTL [2] it was below 0.1 µM. In [5], this compound gave a Papp A→B below 0.6 ×10⁻⁶ cm/s. Besides, in series [5] (read-out: Efflux Ratio), the efflux ratio was above 21.7. For the same compound, the “n-fold induction of CYP3A4 at 10 μM” value in the series on CYP3A4 mRNA is 1.5 n-fold. Also, the “Mouse Hepatocyte Stability QH” value in the series with murine hepatocytes was found to be 61%.
